The supplement of paper PMC11451515

Test system: NOMO1
Test: cell viability relative to DMSO control; higher = less cytotoxic
Settings: 48 h
Summary of the method: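 Leukemia cells (NOMO1 or SEM, 500 cells/well; P12-Ichikawa, 1000 cells/well) were seeded in 5 μl in 1536-well plates after at least four passages of adaptation to each medium. They received library compounds in DMSO by pin dosing, 11 threefold points from 47 μM to 0.79 nM. Luminescence with CellTiter-Glo One was read after 48 h at 37°C. Viability is stated per plate relative to DMSO wells, with cell-free wells as background.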

[1] = HPLM + 10% dialyzed FBS, 0.000781 µM
[2] = HPLM + 10% dialyzed FBS, 0.00234 µM
[3] = HPLM + 10% dialyzed FBS, 0.00702 µM
[4] = HPLM + 10% dialyzed FBS, 0.0211 µM
[5] = HPLM + 10% dialyzed FBS, 0.0632 µM
[6] = HPLM + 10% dialyzed FBS, 0.19 µM
[7] = HPLM + 10% dialyzed FBS, 0.569 µM
[8] = HPLM + 10% dialyzed FBS, 1.71 µM
[9] = HPLM + 10% dialyzed FBS, 5.12 µM
[10] = HPLM + 10% dialyzed FBS, 15.4 µM
[11] = HPLM + 10% dialyzed FBS, 46.1 µM
[12] = RPMI 5 mM glucose + 10% FBS, 0.000781 µM
[13] = RPMI 5 mM glucose + 10% FBS, 0.00234 µM
[14] = RPMI 5 mM glucose + 10% FBS, 0.00702 µM
[15] = RPMI 5 mM glucose + 10% FBS, 0.0211 µM
[16] = RPMI 5 mM glucose + 10% FBS, 0.0632 µM
[17] = RPMI 5 mM glucose + 10% FBS, 0.19 µM
[18] = RPMI 5 mM glucose + 10% FBS, 0.569 µM
[19] = RPMI 5 mM glucose + 10% FBS, 1.71 µM
[20] = RPMI 5 mM glucose + 10% FBS, 5.12 µM
[21] = RPMI 5 mM glucose + 10% FBS, 15.4 µM
[22] = RPMI 5 mM glucose + 10% FBS, 46.1 µM
[23] = RPMI 5 mM glucose + 10% dialyzed FBS, 0.000781 µM
[24] = RPMI 5 mM glucose + 10% dialyzed FBS, 0.00234 µM
[25] = RPMI 5 mM glucose + 10% dialyzed FBS, 0.00702 µM
[26] = RPMI 5 mM glucose + 10% dialyzed FBS, 0.0211 µM
[27] = RPMI 5 mM glucose + 10% dialyzed FBS, 0.0632 µM
[28] = RPMI 5 mM glucose + 10% dialyzed FBS, 0.19 µM
[29] = RPMI 5 mM glucose + 10% dialyzed FBS, 0.569 µM
[30] = RPMI 5 mM glucose + 10% dialyzed FBS, 1.71 µM
[31] = RPMI 5 mM glucose + 10% dialyzed FBS, 5.12 µM
[32] = RPMI 5 mM glucose + 10% dialyzed FBS, 15.4 µM
[33] = RPMI 5 mM glucose + 10% dialyzed FBS, 46.1 µM

Compound	cell viability [1] [%]	cell viability [2] [%]	cell viability [3] [%]	cell viability [4] [%]	cell viability [5] [%]	cell viability [6] [%]	cell viability [7] [%]	cell viability [8] [%]	cell viability [9] [%]	cell viability [10] [%]	cell viability [11] [%]	cell viability [12] [%]	cell viability [13] [%]	cell viability [14] [%]	cell viability [15] [%]	cell viability [16] [%]	cell viability [17] [%]	cell viability [18] [%]	cell viability [19] [%]	cell viability [20] [%]	cell viability [21] [%]	cell viability [22] [%]	cell viability [23] [%]	cell viability [24] [%]	cell viability [25] [%]	cell viability [26] [%]	cell viability [27] [%]	cell viability [28] [%]	cell viability [29] [%]	cell viability [30] [%]	cell viability [31] [%]	cell viability [32] [%]	cell viability [33] [%]
c1ccc(CCCN2CCN(CCOC(c3ccccc3)c3ccccc3)CC2)cc1	91.4	95.1	101	100	85	100	92.9	103	83.1	78.9	53.9	80.3	83.3	96	99.5	94.9	90.3	85.6	76.1	83.3	78	73.8	89.3	97.3	92.7	96.5	89.7	92.5	85.5	86.2	86.3	66.8	24.3
C[C@]12CC[C@@H]3c4ccc(O)cc4CC[C@H]3[C@@H]1[C@@H](O)[C@@H](O)[C@@H]2O	117	121	124	123	121	127	116	128	103	110	102	–	–	–	–	–	–	–	–	–	–	–	106	138	118	142	140	141	131	134	150	128	130
COc1ccc([S+](=O)([O-])N(C(C)=O)c2ccccc2/C=C/c2cc[n+]([O-])cc2)cc1	–	–	–	–	–	–	–	–	–	–	–	116	106	129	114	105	112	130	44.5	21	24.4	22.6	108	111	116	126	115	121	122	46.4	25.3	26.8	28.4
CC(C)C1NC(=O)C(NC(=O)C2=C3\N=C\4/C(=C(C)\C(=O)\C(=C4C(=O)NC5C(C)OC(=O)C(C(C)C)N(C)C(=O)CN(C)C(=O)C6CCCN6C(=O)C(NC5=O)C(C)C)N)OC3=C(C)C=C2)C(C)OC(=O)C(C(C)C)N(C)C(=O)CN(C)C(=O)C7CCCN7C1=O (configuration not stated)	7.64	9.4	7.42	5.43	6.88	5.51	6.57	6.12	3.81	2.42	2.47	7.96	9.36	7.73	5.14	6.66	5.99	5.54	6.58	4.43	2.79	1.97	5.95	8.79	6.56	5.07	5.04	5.51	4.5	3.94	3.31	2.14	2
C[C@@H](Oc1cc(-c2cnn(C3CCNCC3)c2)cnc1N)c1c(Cl)ccc(F)c1Cl	–	–	–	–	–	–	–	–	–	–	–	118	116	113	115	131	129	108	107	96.3	71.8	56.2	114	116	107	124	118	119	119	110	83	64.8	47.4
CN(C)[S+](=O)([O-])c1ccc2c(c1)C(=Cc1cc3c([nH]1)CCCC3)C(=O)N2	124	141	122	128	130	122	122	146	120	127	118	125	112	121	115	109	115	123	111	113	108	105	–	–	–	–	–	–	–	–	–	–	–
COc1ccc(-c2ccc3ncc4c(c3c2)n(-c2ccc(N3CCNCC3)c(C(F)(F)F)c2)c(=O)n4C)cn1	97.7	79.7	57.1	67	51.5	45.9	47.4	24.6	4.81	3.74	2.4	105	100	90.4	79.7	70	54.5	49.1	32.6	32	4.07	3.17	94.5	78.3	70.9	70.5	57	46.1	42.9	29.8	5.1	3.25	1.92
C[C@H](NC(=O)c1sccc1OCc1ccc(Cl)cc1)c1ccccc1	80.8	88.2	80	77.6	91.5	87.5	69.1	68.5	86.9	80.1	69	85.6	83.6	72.4	82.2	94.3	77.9	83.1	78.7	77.7	81.1	77.5	91.3	83.6	77.9	90.7	82	76.2	66.8	82.6	90.8	77.7	87.8
CC(C)c1nc(CN(C)C(=O)N[C@H](C(=O)N[C@@H](Cc2ccccc2)C[C@H](O)[C@H](Cc2ccccc2)NC(=O)OCc2cncs2)C(C)C)cs1	92.4	107	100	95.3	89.9	88.9	98.5	70.5	94.4	80.7	74.3	75.3	75.3	78.5	81.2	77.4	80.2	77.6	79.3	79.9	75.7	79	86.5	80.7	93	90.6	92.8	83.2	81.7	77.1	84.9	79.2	77.1
C[C@H]1COC2=C3N1\C=C(C(O)=O)/C(=O)C3=CC(=C2N4CCN(C)CC4)F	124	123	128	114	122	106	113	108	94.8	85.9	61	–	–	–	–	–	–	–	–	–	–	–	122	112	127	124	124	115	112	112	98.1	98.7	72.9
O=C(O)CCC1CCC(c2cc(F)ccc2F)([S+](=O)([O-])c2ccc(Cl)cc2)CC1 (configuration not stated)	98.6	117	137	124	140	139	146	85.2	30.5	35.4	34	122	115	125	124	117	146	126	64	25.2	21.7	23.8	109	137	104	129	126	137	125	102	28.5	33	28.2
CCN(CC)CCOc1ccc(/C(=C(\Cl)c2ccccc2)c2ccccc2)cc1	124	123	130	136	150	134	130	134	109	122	102	–	–	–	–	–	–	–	–	–	–	–	–	–	–	–	–	–	–	–	–	–	–
C[C@@H]1COCCN1c1cc(C2([S@+](C)(=N)[O-])CC2)nc(-c2ccnc3[nH]ccc23)n1	94.9	116	119	121	127	120	91.9	67.7	34.5	27.6	24.6	102	114	114	119	115	130	114	103	59.4	24.5	17.9	97.6	107	114	119	122	120	116	98.2	39	22	22.3
CCOC(=O)c1ccc(OC(=O)CCCCCNC(=N)N)cc1	126	115	122	116	137	128	127	84.6	91.8	62.4	55	117	119	124	114	131	128	114	132	77.3	83	104	116	110	135	134	114	142	137	154	85.7	81.8	91.2
CCc1ccc(CCOc2ccc(CC3SC(=O)NC3=O)cc2)nc1 (configuration not stated)	125	106	119	134	130	113	111	112	96.7	114	106	112	123	129	120	107	112	99	121	106	107	106	–	–	–	–	–	–	–	–	–	–	–
